Measurements: patent US20150259344A1, “IMIDAZOLE DERIVATIVE” (DAINIPPON SUMITOMO PHARMA CO., LTD., priority 2012, published 2015)

Target: T1, human α7 nAChR (Homo sapiens, UniProt P36544)
T1 construct: expressed in transfected cells
Assay: Evaluation of PAM activity with human α7 nACh receptor stably expressing cells (aequorin luminescence, FDSS7000)
Type: cell-based
Conditions: for activity at 10 µM: 10 μM test compound, read-out: α7PAM (%) @10 μM; for PAM activity for α7 nAChR (in words): comparison across Tables 18 to 25
Experimental: Evaluation of PAM activity with human α7 nACh receptor stably expressing cells
(1) Human α7 nAChR stably expressing cells
Human α7 nAChR stably expressing cells were generated and cultured.
Thus, the cells were subcultured.
Seven days after subculturing, the cells were treated with TrypLE Express to collect them when they were about 80% confluent.
On the next day after seeding, Viviren (cat#E649X, Promega, Madison, Wis., USA) was added to the medium so that the final concentration could be 4 μM (15 μL/well). The plates were centrifuged and then placed in the dark for 4 hours at room temperature.
(2) Preparation of the Test Samples
Each of the test compounds was dissolved in DMSO to prepare each test sample at a concentration of 1000-fold the final concentration. To the solution was added Hanks/20 mM HEPES/0.2% BSA (cat#A3803, Sigma, St. Louis, Mo., USA), and the concentration was adjusted to 6-fold the final concentration.
(3) Evaluation of PAM Activity
FDSS7000 (Hamamatsu Photonics) was used to detect the luminescence signal evoked by α7 nAChR stimulation. The cells and a luminescent substrate were put on a plate, and the test sample was added thereto. […] The ratio of the RLU (Max-Min) of the test-compound-containing wells to that of the control wells was defined as PAM activity.

[1] = ACh at EC20, ratio of RLU (Max-Min) to control wells

T1 sequence (P36544 23-502): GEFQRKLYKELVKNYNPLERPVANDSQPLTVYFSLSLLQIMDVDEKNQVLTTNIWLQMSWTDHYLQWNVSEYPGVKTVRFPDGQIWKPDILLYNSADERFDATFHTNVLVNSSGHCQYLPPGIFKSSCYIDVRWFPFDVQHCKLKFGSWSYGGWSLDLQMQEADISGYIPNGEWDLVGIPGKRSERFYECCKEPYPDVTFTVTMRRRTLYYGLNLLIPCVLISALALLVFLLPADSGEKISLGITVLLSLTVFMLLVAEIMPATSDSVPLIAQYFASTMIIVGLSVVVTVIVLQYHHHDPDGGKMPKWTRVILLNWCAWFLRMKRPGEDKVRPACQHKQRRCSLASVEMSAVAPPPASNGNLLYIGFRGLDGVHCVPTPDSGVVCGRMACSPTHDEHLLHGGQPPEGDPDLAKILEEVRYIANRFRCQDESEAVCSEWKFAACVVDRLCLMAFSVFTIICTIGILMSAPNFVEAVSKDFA

| SMILES | activity at 10 µM [1] | other results |
| --- | --- | --- |
| CC(C)(C)NC(=O)N1CCC(n2cnc(-c3cccc(F)c3)c2)CC1 [Example 64] | 149% |  |
| CC(C)(C)NC(=O)N1CCC(n2cnc(-c3ccccc3F)c2)CC1 [Example 67] | 317% |  |
| COc1cccc(-c2cn(C3CCN(C(=O)NC(C)(C)C)CC3)cn2)c1 [Example 70] | 158% |  |
| COc1cc(-c2cn(C3CCN(C(=O)NC4CCCCC4)CC3)cn2)ccc1Cl [Example 72] |  | PAM activity for α7 nAChR (in words): stronger PAM activity than others |
| O=C(NC1CCCCC1)N1CCC(n2cnc(-c3ccccc3)c2Cl)CC1 [Example 73] |  | PAM activity for α7 nAChR (in words): stronger PAM activity than others |
| O=C(NC1CCC1)N1CCC(n2cnc(-c3ccccc3)c2Cl)CC1 [Example 79] |  | activity at 1 µM (1 μM test compound (values marked *, footnote of Table 25), ACh at EC20, ratio of RLU (Max-Min) to control wells, read-out: α7PAM (%) @1 μM): 112% |
| CC(C)(C)NC(=O)N1CCC(n2cnc(-c3ccccc3F)c2Cl)CC1 [Example 92] | 758% |  |
| O=C(NC1CCOCC1)N1CCC(n2cnc(-c3ccc(C(F)(F)F)cc3)c2Cl)CC1 [Example 93] |  | PAM activity for α7 nAChR (in words): stronger PAM activity than others |
| O=C(NC1CCOCC1)N1CCC(n2cnc(-c3cccc(C(F)(F)F)c3)c2Cl)CC1 [Example 94, 4-{5-chloro-4-[3-(trifluoromethyl)phenyl]-1H-imidazol-1-yl}-N-(tetrahydro-2H-pyran-4-yl)piperidine-1-carboxamide] | 981% |  |
| N#Cc1c(-c2ccccc2)ncn1C1CCN(C(=O)NC2CCC(F)(F)CC2)CC1 [Example 99] |  | PAM activity for α7 nAChR (in words): stronger PAM activity than others |
| CC(C)(C)NC(=O)N1CCC(n2cnc(-c3ccccc3)c2C#N)CC1 [Example 100] | 708% |  |
| O=C(NC1CCCCC1)N1CCC(n2cnc(-c3ccccc3)c2C2CC2)CC1 [Example 108] | 576% |  |
| CC(C)(C)NC(=O)N1CCC(n2cnc(-c3ccccc3)c2C2CC2)CC1 [Example 109] | 457% |  |
| CC(C)(C)NC(=O)N1CCC(n2cnc(-c3ccccc3)c2CO)CC1 [Example 111] | 153% |  |
| O=C(NC1CCC(F)(F)CC1)N1CCC(n2cnc(-c3ccccc3)c2C2CC2)CC1 [Example 113] | 882% |  |
| O=C(NC1CCC(F)(F)CC1)N1CCC(n2cnc(-c3ccc(Cl)s3)c2)CC1 [Example 118] |  | PAM activity for α7 nAChR (in words): stronger PAM activity than others |

The next lines start with results.

| activity at 10 µM [1] | SMILES | other results |
| --- | --- | --- |
| 422% | COc1cccc(-c2cn(C3CCN(C(=O)NC4CCCCC4)CC3)cn2)c1 [Example 71] |  |
| 779% | COc1ccc(-c2ncn(C3CCN(C(=O)NC4CCCC4)CC3)c2Cl)cc1 [Example 74] |  |
| 671% | O=C(NC1CCCC1)N1CCC(n2cnc(-c3cccc(F)c3)c2Cl)CC1 [Example 83] |  |
| 747% | O=C(NC1CCCCC1)N1CCC(n2cnc(-c3cccc(F)c3)c2Cl)CC1 [Example 84] |  |
| 641% | Cc1c(-c2ccccc2)ncn1C1CCN(C(=O)NC2CCCCC2)CC1 [Example 102] |  |
| 452% | CCc1c(-c2ccccc2)ncn1C1CCN(C(=O)NC2CCCCC2)CC1 [Example 103] |  |
| 201% | O=C(NC1CCCCC1)N1CCC(n2cnc(-c3ccccc3)c2CO)CC1 [Example 110] |  |
| 133% | Cc1nc(-c2ccccc2)cn1C1CCN(C(=O)NC2CCCCC2)CC1 [Example 114] |  |
| 131% | O=C(NC1CCCCC1)N1CCC(n2cc(-c3ccccc3)nc2Cl)CC1 [Example 116] |  |
| 853% | O=C(NC1CCCCC1)N1CCC(n2cnc(-c3ccc(Cl)s3)c2)CC1 [Example 117] |  |
| 208% | O=C(NC1CCC(F)(F)CC1)N1CCC(n2cnc(-c3ccnc(Cl)c3)c2)CC1 [Example 120] |  |
| 201% | O=C(NC1CCCC1)N1CCC(n2cnc(-c3cccs3)c2)CC1 [Example 121] |  |
| 459% | Cc1ccc(-c2cn(C3CCN(C(=O)NC4CCCC4)CC3)cn2)s1 [Example 122] |  |
| 345% | O=C(NC1CCCCC1)N1CCC(n2cnc(-c3cccs3)c2)CC1 [Example 123] |  |
| 572% | Cc1ccc(-c2cn(C3CCN(C(=O)NC4CCCCC4)CC3)cn2)s1 [Example 124] |  |
